This is an account of results in ChEMBL document CHEMBL5365395, “Optimization of a series of novel, potent and selective Macrocyclic SYK inhibitors” (Bioorg Med Chem Lett, 2023).

SMILES strings stand for the structures.

Test system in one series: not listed separately
As to the kind of experiment: Lipophilicity, logD of the compound in buffer/octanol volume ratio of 100:1 at pH 7.4 by shake flask method.
Conditions: not given
The series is classed as physicochemical.
`Cc1nn2cc1CN(C)CCOCCNC(=O)c1nn(CC(C)(C)O)c3ccc(cc13)Nc1nccc-2n1`: the logD is 1.6.
For the compound `Cc1nn2cc1CN(C)CCOCCNC(=O)c1nn(C[C@@H](C)O)c3ccc(cc13)Nc1nccc-2n1`, the logD was found to be 1.4.
Consider `Cc1nn2cc1CN(C)N1CC(CNC(=O)c3nn(C)c4ccc(cc34)Nc3nccc-2n3)C1`, for which the log distribution coefficient (logD) was determined as 1.2.
For `Cc1nn2cc1CN(C)N1CCC(O)(CCNC(=O)c3nn(C)c4ccc(cc34)Nc3nccc-2n3)CC1`, the logD stood at 1.6.
Consider `Cc1nn2cc1CN(C)CCCCCNC(=O)c1nn(C)c3ccc(cc13)Nc1nccc-2n1`, for which the logD was 2.7.
Still for that read-out and setting: the result for `Cc1nn2cc1CN(C)CCOCCNC(=O)c1nn(C[C@H](C)O)c3ccc(cc13)Nc1nccc-2n1` reads 1.3.

The target of the next series is Voltage-gated inwardly rectifying potassium channel KCNH2 (Homo sapiens, UniProt Q12809). As to the kind of experiment: Inhibition of human ERG by patch clamp assay.
Sequence of Voltage-gated inwardly rectifying potassium channel KCNH2 (Q12809 whole entry): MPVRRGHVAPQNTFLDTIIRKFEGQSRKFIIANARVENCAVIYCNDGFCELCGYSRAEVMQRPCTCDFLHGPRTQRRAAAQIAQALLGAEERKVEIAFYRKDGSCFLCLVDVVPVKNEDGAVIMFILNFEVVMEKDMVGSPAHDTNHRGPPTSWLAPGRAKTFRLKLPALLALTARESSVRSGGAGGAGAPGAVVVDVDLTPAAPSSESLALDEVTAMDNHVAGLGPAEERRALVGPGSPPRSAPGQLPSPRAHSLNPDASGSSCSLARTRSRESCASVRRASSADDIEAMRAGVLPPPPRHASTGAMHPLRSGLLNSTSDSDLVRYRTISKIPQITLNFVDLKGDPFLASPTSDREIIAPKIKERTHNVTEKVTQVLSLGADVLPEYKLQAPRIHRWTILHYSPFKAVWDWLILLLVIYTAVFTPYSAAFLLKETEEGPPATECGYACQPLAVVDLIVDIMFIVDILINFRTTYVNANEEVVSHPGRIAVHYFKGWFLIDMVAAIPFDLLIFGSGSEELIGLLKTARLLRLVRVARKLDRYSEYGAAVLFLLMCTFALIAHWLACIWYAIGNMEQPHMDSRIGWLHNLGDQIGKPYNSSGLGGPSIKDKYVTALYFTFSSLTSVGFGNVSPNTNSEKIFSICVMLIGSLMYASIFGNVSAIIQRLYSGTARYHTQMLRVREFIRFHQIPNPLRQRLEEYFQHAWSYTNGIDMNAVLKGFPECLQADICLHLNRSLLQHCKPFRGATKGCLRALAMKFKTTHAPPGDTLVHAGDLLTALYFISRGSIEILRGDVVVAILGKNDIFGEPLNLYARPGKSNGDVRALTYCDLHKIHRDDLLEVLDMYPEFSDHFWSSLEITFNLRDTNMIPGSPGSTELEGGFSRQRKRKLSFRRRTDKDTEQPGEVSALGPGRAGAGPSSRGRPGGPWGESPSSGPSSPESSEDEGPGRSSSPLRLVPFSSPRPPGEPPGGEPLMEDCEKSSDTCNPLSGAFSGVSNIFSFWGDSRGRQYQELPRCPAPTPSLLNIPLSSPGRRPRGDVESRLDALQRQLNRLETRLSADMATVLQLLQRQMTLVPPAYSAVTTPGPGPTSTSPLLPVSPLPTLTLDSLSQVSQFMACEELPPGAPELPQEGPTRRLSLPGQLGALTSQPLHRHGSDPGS
Conditions: not given
The series is classed as toxicity.
`Cc1nn2cc1CN(C)CCOCCNC(=O)c1nn(CC(C)(C)O)c3ccc(cc13)Nc1nccc-2n1`: the midpoint of inhibition, the IC50, lay at 8 µM.
`Cc1nn2cc1CN(C)CCOCCNC(=O)c1nn(C[C@@H](C)O)c3ccc(cc13)Nc1nccc-2n1`: half-maximal inhibition (IC50) was put at 22 µM.
`Cc1nn2cc1CN(C)N1CCC(O)(CCNC(=O)c3nn(C)c4ccc(cc34)Nc3nccc-2n3)CC1` gave an IC50 of 8.8 µM.
Regarding `Cc1nn2cc1CN(C)CCOCCNC(=O)c1nn(C[C@H](C)O)c3ccc(cc13)Nc1nccc-2n1`, the IC50 was more than 22 µM.

Test system in a further series: not listed separately
As to the kind of experiment: Intrinsic Clearance in human liver microsome. The series is classed as ADME. The settings on record: liver microsomes, read-out: CLH.
As for `Cc1nn2cc1CN(C)CCOCCNC(=O)c1nn(CC(C)(C)O)c3ccc(cc13)Nc1nccc-2n1`, the microsomal CLint was determined as 52 µL/min/mg.
For `Cc1nn2cc1CN(C)CCOCCNC(=O)c1nn(C[C@@H](C)O)c3ccc(cc13)Nc1nccc-2n1`, the microsomal CLint stood at 39 µL/min/mg.
Turning to `Cc1nn2cc1CN(C)N1CC(CNC(=O)c3nn(C)c4ccc(cc34)Nc3nccc-2n3)C1`, the microsomal CLint stood at 18 µL/min/mg.
On to `Cc1nn2cc1CN(C)N1CCC(O)(CCNC(=O)c3nn(C)c4ccc(cc34)Nc3nccc-2n3)CC1`, for which the microsomal CLint turned out to be 28 µL/min/mg.
Regarding `Cc1nn2cc1CN(C)CCCCCNC(=O)c1nn(C)c3ccc(cc13)Nc1nccc-2n1`, the microsomal CLint is 44 µL/min/mg.
The same measure, in the same setting: the result for `Cc1nn2cc1CN(C)CCOCCNC(=O)c1nn(C[C@H](C)O)c3ccc(cc13)Nc1nccc-2n1` reads 34 µL/min/mg.

Another series relates to SUD4. As to the kind of experiment: Cytotoxicity against human SU-DHL-4 cells assessed as reduction in cell viability.
Conditions: not given
For the compound `CNC(=O)c1nn(C)c2ccc(Nc3nccc(-n4cc(CN(C)C)c(C)n4)n3)cc12`, the half-inhibitory concentration (IC50) amounted to 0.24 µM.
Regarding `Cc1nn2cc1CN(C)CCOCCNC(=O)c1nn(CC(C)(C)O)c3ccc(cc13)Nc1nccc-2n1`, the half-maximal inhibitory concentration (IC50) turned out to be 0.48 µM.
For `Cc1nn2cc1CN(C)CCOCCNC(=O)c1nn(C[C@@H](C)O)c3ccc(cc13)Nc1nccc-2n1`, the half-maximal inhibitory concentration (IC50) was found to be 0.26 µM.
Take `Cc1nn2cc1CN(C)N1CC(CNC(=O)c3nn(C)c4ccc(cc34)Nc3nccc-2n3)C1`: the 50% inhibitory concentration (IC50) came to 1.2 µM.
Take `Cc1nn2cc1CN(C)N1CCC(O)(CCNC(=O)c3nn(C)c4ccc(cc34)Nc3nccc-2n3)CC1`: the IC50 amounted to 0.1 µM.
Consider `Cc1nn2cc1CN(C)CCCCCNC(=O)c1nn(C)c3ccc(cc13)Nc1nccc-2n1`, for which the IC50 is 2.2 µM.
The same measure, in the same setting: the result for `Cc1nn2cc1CN(C)CCOCCNC(=O)c1nn(C[C@H](C)O)c3ccc(cc13)Nc1nccc-2n1` reads 0.39 µM.

Test system in the next series: not listed separately
As to the kind of experiment: Apparent permeability across apical to basolateral side in human Caco-2 cells at pH 6.5 after 45 to 120 mins by LC-MS/MS analysis. The settings on record: Caco-2, pH 6.5, time 45-120 min. The series is classed as ADME, cell-based.
Take `Cc1nn2cc1CN(C)N1CCC(O)(CCNC(=O)c3nn(C)c4ccc(cc34)Nc3nccc-2n3)CC1`: the apical-to-basolateral permeability (Papp A→B) turned out to be 19 nm/s.

Test system in the next series: not listed separately
Description: Intrinsic clearance in rat hepatocytes assessed per million cells. The series is classed as ADME, cell-based, Hepatocyte. The settings on record: read-out: CLH.
Take `Cc1nn2cc1CN(C)CCOCCNC(=O)c1nn(CC(C)(C)O)c3ccc(cc13)Nc1nccc-2n1`: the hepatocyte CLint was found to be 3.4 µL/min/1e6 cells.
For `Cc1nn2cc1CN(C)CCOCCNC(=O)c1nn(C[C@@H](C)O)c3ccc(cc13)Nc1nccc-2n1`, the hepatocyte CLint was determined as 4.4 µL/min/1e6 cells.
As to `Cc1nn2cc1CN(C)N1CC(CNC(=O)c3nn(C)c4ccc(cc34)Nc3nccc-2n3)C1`, the hepatocyte CLint was determined as 27 µL/min/1e6 cells.
For the compound `Cc1nn2cc1CN(C)N1CCC(O)(CCNC(=O)c3nn(C)c4ccc(cc34)Nc3nccc-2n3)CC1`, the hepatocyte CLint amounted to 2.1 µL/min/1e6 cells.
On to `Cc1nn2cc1CN(C)CCCCCNC(=O)c1nn(C)c3ccc(cc13)Nc1nccc-2n1`, for which the hepatocyte CLint is 12 µL/min/1e6 cells.
Take `Cc1nn2cc1CN(C)CCOCCNC(=O)c1nn(C[C@H](C)O)c3ccc(cc13)Nc1nccc-2n1`: the hepatocyte CLint stood at 6.5 µL/min/1e6 cells.
